Data as given in patent publication US9150902B2, “Method for determination of N-deacetylase/N-sulfotransferase activity” (SEIKAGAKU CORPORATION, priority 2005, dated 2015).

Assays:
NDST2 (ND activity) = biological target: T1, NDST2 (ND activity) (Homo sapiens, UniProt P52849); assay: Screening of ND activity inhibitors using the plate to which NAH-biotin was adhered via avidin (JM403 ELISA); type: biochemical; conditions: final concentration 100, 10 or 1 μg/ml; for function to inhibit ND activity (rate of change, FIG. 8): NDST enzyme liquid 80 times diluted, 37° C. 60 minutes; for ranking of ability to inhibit ND activity among NAH, HP, NSDS-HP and HSBK: FIG. 8
T1 construct: baculovirus gp67 signal peptide (39 amino acids) (N, cleaved yes); made in house; host or cells: Sf21 insect cells infected with recombinant baculovirus (virus stock made in Sf9)
T1 sequence (P52849 79-883): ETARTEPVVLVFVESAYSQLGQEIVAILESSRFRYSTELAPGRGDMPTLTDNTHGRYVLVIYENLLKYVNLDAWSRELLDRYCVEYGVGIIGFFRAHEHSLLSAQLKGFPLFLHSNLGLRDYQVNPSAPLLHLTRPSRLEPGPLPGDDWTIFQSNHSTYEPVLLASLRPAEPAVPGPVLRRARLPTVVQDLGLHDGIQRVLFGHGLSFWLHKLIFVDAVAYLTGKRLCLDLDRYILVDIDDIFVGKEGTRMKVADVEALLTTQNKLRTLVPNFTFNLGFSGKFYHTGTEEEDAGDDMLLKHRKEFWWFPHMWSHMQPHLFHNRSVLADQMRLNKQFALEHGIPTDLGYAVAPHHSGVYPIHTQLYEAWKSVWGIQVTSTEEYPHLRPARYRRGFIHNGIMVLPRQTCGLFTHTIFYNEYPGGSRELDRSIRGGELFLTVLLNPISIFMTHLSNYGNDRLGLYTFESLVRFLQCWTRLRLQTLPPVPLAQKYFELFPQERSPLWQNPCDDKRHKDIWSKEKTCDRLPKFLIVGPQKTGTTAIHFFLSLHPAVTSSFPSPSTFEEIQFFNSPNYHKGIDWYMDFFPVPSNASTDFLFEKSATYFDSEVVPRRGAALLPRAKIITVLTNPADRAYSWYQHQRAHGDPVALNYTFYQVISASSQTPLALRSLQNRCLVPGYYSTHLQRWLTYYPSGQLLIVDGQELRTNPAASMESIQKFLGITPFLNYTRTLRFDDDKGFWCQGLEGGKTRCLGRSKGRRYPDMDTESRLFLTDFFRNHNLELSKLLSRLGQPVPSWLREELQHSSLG
Protocol: Each of the following 6 substances to be tested was diluted to 200, 20 or 2 μg/ml using the enzyme reaction liquid 1. Quickly after addition of 25 μl of the solutions to each well of the solid phase (plate) produced in Example 9, 25 μl of an “NDST enzyme liquid diluted 40 times with the enzyme reaction liquid I” was added to each well (final concentration of each substance to be tested 100, 10 or 1 μg/ml, final dilution rate of the enzyme liquid 80 times).
Thereafter, the enzyme reaction was effected by standing still at 37° C. for 60 minutes. In this connection, the enzyme reaction liquid 1 alone was added to the wells to which the substances to be tested were not added.
After completion of the reaction, the wells were washed three times with T-TBS and 100 μl of a solution of the monoclonal antibody JM403 (Seikagaku Corporation) adjusted to 1 μg/ml with TBS was added to each well. Thereafter, the plate was allowed to stand still at ordinary temperature (15 to 25° C.) for 60 minutes to undergo the antigen-antibody reaction. After the reaction, the wells were washed three times with T-TBS, and 100 μl of the HRP-labeled goat anti-mouse immunoglobulin G+M antibody diluted 20000 times with TBS was added to each well. Thereafter, the plate was allowed to stand still at ordinary temperature for 60 minutes to undergo the antigen-antibody reaction.
After the reaction, this plate was washed three times with T-TBS, and 100 μl of the TMB solution was added to each well and allowed to undergo the reaction at ordinary temperature for 30 minutes to develop a color. Thereafter, the reaction was terminated by adding 100 μl of the reaction terminating liquid to each well, and then the absorbance was measured by the same method described in Example 5. Also, the rate of change (%) was calculated by the following calculation formula. Rate of change(%)=100×((the value of absorbance when each substance to be tested is not added)−(the value of absorbance when each substance to be tested at respective concentration is added))/(the value of absorbance when each substance to be tested is not added).
In this connection, since the monoclonal antibody JM403 binds to the GlcN residues in NAH (that is, de-N-acetylated GlcNAc residue), higher value of the detected absorbance means that the number of GlcN residues in NAH is larger (that is, the number of de-N-acetylated GlcNAc residues is larger), namely the ND activity is higher. On the contrary, lower value of the detected absorbance means that the number of GlcN residues in NAH is smaller (that is, the number of de-N-acetylated GlcNAc residues is smaller), namely the ND activity is low.
Additionally, when a substance to be tested inhibits ND activity, the aforementioned rate of change (%) becomes a positive number. Also, higher value of the rate of change means higher ability of the substance to be tested to inhibit ND.

[1] = system: monoclonal antibody F58-10E4; assay: Inhibition method: monoclonal antibody F58-10E4 binding to HSBK-adhered plate in presence of N-sulfated heparosan; conditions: 20 μg/well; F58-10E4 1 μg/mL; lot as prepared
Protocol: A polysaccharide in which biotin is bound to the reducing end of HSBK was prepared using HSBK instead of NAH and in accordance with the method described in Example 1(3). Next, this was adhered to a plate in accordance with the method described in Example 9.
The monoclonal antibody F58-10E4 (final concentration: 1 μg/mL) and the 9 lots of N-sulfated heparosan (20 μg/well; a value corrected based on the uronic acid content obtained by the carbazole method) were added to the plate to which HSBK was adhered to effect the antigen-antibody reaction under the conditions described in Example 7, and the absorbance was measured by the method described in Example 7. This is a measurement by a so-called inhibition method. When concentration of the N-sulfated heparosan in the antigen-antibody reaction liquid is 0, substantially all of the monoclonal antibody F58-10E4 binds to the adhered HSBK and the detected absorbance becomes high.
By regarding the absorbance when concentration of the N-sulfated heparosan in the antigen-antibody reaction liquid is 0 as “inhibition rate 0%”, and the absorbance when excess concentration of N-sulfated heparosan is present in the antigen-antibody reaction liquid as “inhibition rate 100%”, the inhibition ratio was calculated on the 9 lots of N-sulfated heparosan. […]
The inhibition rates of these substances were also calculated in the same manner. […]

Substance	function to inhibit ND activity (rate of change, FIG. 8) (NDST2 (ND activity))	ranking of ability to inhibit ND activity among NAH, HP, NSDS-HP and HSBK (NDST2 (ND activity))	Inhibition rate (%) No treatment [1] [%]
Partially de-N-acetylated NAH [PDNAC-NAH]	hardly possessed of the function to inhibit ND activity		
N-acetyl heparosan [NAH]	inhibit ND activity concentration-dependently	lowest ability to inhibit ND activity	
Bovine kidney-derived HS [HSBK]	inhibit ND activity concentration-dependently	highest ability to inhibit ND activity	99
Swine small intestine-derived HP	inhibit ND activity concentration-dependently		
Cockscomb-derived hyaluronic acid [HA]	hardly possessed of the function to inhibit ND activity		
N-sulfated/completely de-O-sulfated HP [NSDS-HP]	inhibit ND activity concentration-dependently		
